Values joined by “and” are separate entries in the source; they are usually repeats but may differ in a detail not shown here. Equal entries are not always repeated. Where two headings read alike, the source gives them in different places.
What was measured:
Assay type in all cases: in vivo
[1] = tested on: honeybees (Apis mellifera); assay: Bee acute oral toxicity; conditions: for LD50 / Mortality / Toxicity level: Oral toxicity; for LD50 oral toxicity: adult bees, time not stated
Procedure: (§1) The test bees were Italian bees (Apis mellifera), and the newly born adult worker bees (<24 h) were selected for drug drip treatment. Weigh 50 mg of test substance FLP and fully dissolve it in DMSO to obtain 10 × 10^4 mg A.I./L of stock liquid medicine; dissolve B4 fully in DMSO and fix the volume to a 1-ml volumetric flask to obtain 11.6 × 10^4 mg A.I./L stock solution.
Oral toxicity. Before the formal experiment, a pre-experiment was carried out. According to the formal experimental conditions, three to four dose groups were set at large intervals to observe the death of bees between 24 and 48 h and determine the linear range of the lethal effect of drugs on bees. According to the pre-test results, determine the concentration range of the formal test and set five to seven test dose groups. Starve bees for 2 h before being infected, and then eliminate bees that are dying or have abnormal behaviors; put 200 μL of test liquid medicine in the feeding tube, and after the liquid medicine is consumed (within 6 h), take out the feeder to measure the weight of the food that has not been consumed. Then, the bees were fed with sucrose solution without test samples. Cultivate in the dark. At the same time, feeding 50% sucrose solution as a blank control, the treatment group and the control group were set up with three replicates, and 20 bees were used in each replicate. According to the results of the pre-experiment, if the toxicity of the drug to bees is low, the upper limit dose of 100 μg a.i./bee is set for the limit test of bees, that is, when the tested substance reaches 100 μg a.i./bee, no bees die, so there is no need to continue the test. If the solubility of the test substance is less than 100 μg a. i./bee, the maximum solubility is adopted as the upper limit concentration. The test results were examined at 24 and 48 h, respectively, and the number of deaths and poisoning symptoms were recorded. The standard of death is touching the bee's body, and when it can't crawl, it is judged as death.
(§2) Statistical analysis. Using the statistical software SPSS16.0, the LD50 value and 95% confidence limit of the half lethal dose of the sample to bees were obtained by regression statistical analysis with the probit analysis method.

[2] = tested on: honeybees (Apis mellifera); assay: Bee contact toxicity; conditions: for LD50 / Toxicity level / Mortality: Contact toxicity; for Mortality: 1 μL of 10 × 10^4 mg A.I./L per bee; for LD50 contact toxicity: adult bees, time not stated
Procedure: as §1
Contact toxicity. 10 × 10^4 mg A.I./L of mother liquor was used as the test liquid, and 1 μL of the solution containing the tested drug was dripped onto the back of the front chest of bees by a micro-dropper. Then, bees were put into a beekeeping box and cultured in dark conditions at a temperature of 30 ± 1°C and relative humidity of 50%, with a 50% sucrose solution as food for 48 h. Taking the solvent drip bees without the drug to be tested as the blank control, the treatment group and the control group were set up with three replicates, and 10 bees were used in each replicate.
as §2

Nilaparvata lugens = assay: Insecticidal activity against Nilaparvata lugens (Potter spray tower); conditions: 24 h, read-out: Mortality rate (%) N. lugens
Excerpt: (§3) Preparation of test agent. Dissolve accurately weighed tested compound in DMF to prepare 1% mother liquor, and then dilute it with distilled water containing 0.1% Tween-80 to corresponding concentrations for later use.
Insecticidal activity against Nilaparvata lugens ([Ghareeb et al., 2021]). The seedlings with two leaves and one heart were placed in a Petri dish with a bottom diameter of 3 cm and covered with white sand. After the 3rd instar nymphae of N. lugens were stunned by CO2, about 15 nymphae were received in each dish, and then 2.5 ml of the tested agent was sprayed with Potter spray tower. The mortality of N. lugens was investigated 1 day after the treatment. Each treatment was repeated three times, and DMF without the tested compound was used as a blank control.
(§4) The insecticidal activities of the test compounds against the abovementioned five insects were calculated by the following formula: P1=(K/N)×100, (1) P2=(Pt−P0)/(1−P0)×100, (2) where P1 is the mortality rate; K is the dead insect number; N is the total number of experimental insects; P2 is the corrected mortality rate; Pt is the mortality rate of treatment; P0 is the mortality rate of CK. If the mortality rate of CK is less than 5%, without the required correction, and if the mortality rate of CK is between 5 and 20%, P2 should be calculated according to formula II.

Aphis craccivora = assay: Insecticidal activity against Aphis craccivora (Potter spray tower); conditions: read-out: Mortality rate (%) A. craccivora
Procedure: as §3
Insecticidal activity against Aphis craccivora ([Liu et al., 2022]). About 30 nymphs of alfalfa aphid were placed on a horsebean leaf dish, and then 2.5 ml of the tested agent was sprayed with Potter spray tower. After treatment, they were cultured in an observation room at 20–22°C. The result was counted 24 h later, and the no-response insect body when it was lightly touched with tweezers was regarded as dead. Each treatment was repeated three times, and DMF without the tested compound was used as a blank control.
as §4

Plutella xylostella = assay: Insecticidal activity against Plutella xylostella (soaking method)
Excerpt: as §3
Insecticidal activity against Plutella xylostella ([Yang et al., 2021]). The soaking method was adopted. After soaking a proper amount of radish leaves for 10 s, it was placed in a plastic Petri dish with filter paper and dried naturally in the shade. Each dish was inoculated with 10 2nd instar P. xylostella larvae and placed in an observation room at 22°C with light (16/8 h). The result was counted 2 days later, and the no-response insect body when it was lightly touched with a brush was regarded as dead. Each treatment was repeated three times, and DMF without the tested compound was used as a blank control.
as §4

Chilo suppressalis = assay: Insecticidal activity against Chilo suppressalis (soaking method); conditions: 96 h, read-out: Mortality rate (%) C. suppressalis
Excerpt: as §3
Insecticidal activity against Chilo suppressalis ([Huang et al., 2022]). The soaking method was adopted. The Zizania latifolia slices were soaked in a tested solution for 10 s, then taken out, and placed in a plastic Petri dish with filter paper to naturally dry in the shade. […] The result was counted 4 days later, and the no-response insect body when it was lightly touched with a brush was regarded as dead. Each treatment was repeated three times, and DMF without the tested compound was used as a blank control.
as §4

Helicoverpa armigera = assay: Insecticidal activity against Helicoverpa armigera (soaking method); conditions: for mortality at 400 µg/mL: Helicoverpa armigera, 48 h, read-out: Mortality rate (%) H. armigera
Excerpt: as §3
Insecticidal activity against Helicoverpa armigera. The soaking method was adopted ([Yang et al., 2022]). After soaking a proper amount of corn leaves for 10 s, they were placed in a plastic Petri dish with filter paper and dried naturally in the shade. Ten larvae of the 2nd instar H. armigera were attached to each dish and placed in an observation room at 26°C with light (16/8 h). The result was counted 2 days later, and the no-response insect body when it was lightly touched with a brush was regarded as dead. Each treatment was repeated 3 times, and DMF without the tested compound was used as a blank control.
as §4

[3] = 400 μg/mL, 3rd instar nymphae, 1 day after treatment
[4] = Plutella xylostella, 48 h, 400 μg/mL, 2nd instar larvae, counted 2 days later, read-out: Mortality rate (%) P. xylostella
[5] = 400 μg/mL, 3rd instar larvae, counted 4 days later
[6] = 400 μg/mL, 2nd instar larvae, counted 2 days later
[7] = Plutella xylostella, 48 h, read-out: Mortality rate (%) P. xylostella

Compound	LD50 oral toxicity [1]	LD50 ([2]; 24 h)	Toxicity level ([2]; 24 h)	Mortality ([2]; 24 h)	Toxicity level ([2]; 48 h)	Mortality ([2]; 48 h)	LD50 contact toxicity [2]	mortality at 400 µg/mL (Nilaparvata lugens; [3])	mortality at 400 µg/mL (Aphis craccivora; 400 μg/mL, counted 24 h later)	mortality at 400 µg/mL (Plutella xylostella; [4])	mortality at 400 µg/mL (Chilo suppressalis; [5])	mortality at 400 µg/mL (Helicoverpa armigera; [6])	further results
COCC(=O)/N=c1\ccccn1Cc1cnn(-c2ccc(Cl)cc2)c1C(F)(F)F [Compound B4, (E)-N-(1-((1-(4-chlorophenyl)-5-(trifluoromethyl)-1H-pyrazol-4-yl)methyl)pyridin-2(1H)-ylidene)-2-methoxyacetamide]	> 11.0 μg a.i./bee	>11.0 μg a.i./bee	Low toxicity	3	Low toxicity	3	> 11.0 μg a.i./bee	0%	0%	100%	0%	0%	LD50 ([1]; 24 h): >11.0 μg a.i./bee; Mortality ([1]; 24 h): 15; Toxicity level ([1]; 24 h): Low toxicity; LD50 ([1]; 48 h): >11.0 μg a.i./bee; Mortality ([1]; 48 h): 17; Toxicity level ([1]; 48 h): Low toxicity; LD50 ([2]; 48 h): >11.0 μg a.i./bee; mortality at 100 µg/mL (Plutella xylostella; Plutella xylostella, 48 h, 100 μg/mL, 2nd instar larvae, counted 2 days later, read-out: Mortality rate (%) P. xylostella): 96.7%
O=C(N=c1ccccn1Cc1ccc(Cl)nc1)C(F)(F)F [FLP, flupyrimin]	> 11.0 μg a.i./bee	>11.0 μg a.i./bee	Low toxicity	12 and 9	Low toxicity	13 and 20	> 11.0 μg a.i./bee						mortality at 100 µg/mL (Nilaparvata lugens): 100%; mortality at 400 µg/mL (Nilaparvata lugens): 100%; mortality at 100 µg/mL (Aphis craccivora; 24 h): 100%; mortality at 400 µg/mL (Aphis craccivora; 24 h): 100%; Mortality rate (%) P. xylostella (Plutella xylostella; 25 μg/mL, 2nd instar larvae, counted 2 days later): no insecticidal activity; mortality at 25 µg/mL (Plutella xylostella; [7]): 0%; mortality at 100 µg/mL (Plutella xylostella; [7]): 0%; mortality at 400 µg/mL (Plutella xylostella; [7]): 100%; mortality at 400 µg/mL (Chilo suppressalis): 100%; Mortality rate (%) H. armigera (Helicoverpa armigera; [6]): inactive; mortality at 400 µg/mL (Helicoverpa armigera): 0%
Cn1cc(C(=O)/N=c2\ccccn2Cc2cnn(-c3cccc(F)c3)c2C(F)(F)F)c(C(F)F)n1 [Compound D3, (E)-3-(difluoromethyl)-N-(1-((1-(3-fluorophenyl)-5-(trifluoromethyl)-1H-pyrazol-4-yl)methyl)pyridin-2(1H)-ylidene)-1-methyl-1H-pyrazole-4-carboxamide]								100%	0%	63.3%	0%	0%	mortality at 100 µg/mL (Nilaparvata lugens; 100 μg/mL, 3rd instar nymphae, 1 day after treatment): 0%
Cn1cc(C(=O)/N=c2\ccccn2Cc2cnn(-c3ccc(C(F)(F)F)cc3)c2C(F)(F)F)c(C(F)F)n1 [Compound D5, (E)-3-(difluoromethyl)-1-methyl-N-(1-((5-(trifluoromethyl)-1-(4-(trifluoromethyl)phenyl)-1H-pyrazol-4-yl)methyl)pyridin-2(1H)-ylidene)-1H-pyrazole-4-carboxamide]								0%	0%	63.3%	0%	0%	

From article PMC9574050, “Design, synthesis, and insecticidal activity of a novel series of flupyrimin analogs bearing 1-aryl-1H-pyrazol-4-yl subunits” (Frontiers in Chemistry, 2022)
